We go through 11 compounds from patent US10752613B2, “Compounds and their use for reducing uric acid levels” (Acquist LLC, priority 2016, dated 2020).

Structures are written as SMILES. Entries after “also recorded” stand apart in the source; their conditions may differ.

In this experiment the target is xanthine oxidase (Homo sapiens (Human), UniProt P47989). As to the kind of experiment: Fluorescence-based xanthine oxidase activity assay. Particulars: for IC50: fluorescence-based assay, triplicate, 10 concentrations; for Xanthine oxidase inhibition compared with allopurinol: comparison in words. Format: biochemical.
xanthine oxidase, sequence (P47989 whole entry, species assumed): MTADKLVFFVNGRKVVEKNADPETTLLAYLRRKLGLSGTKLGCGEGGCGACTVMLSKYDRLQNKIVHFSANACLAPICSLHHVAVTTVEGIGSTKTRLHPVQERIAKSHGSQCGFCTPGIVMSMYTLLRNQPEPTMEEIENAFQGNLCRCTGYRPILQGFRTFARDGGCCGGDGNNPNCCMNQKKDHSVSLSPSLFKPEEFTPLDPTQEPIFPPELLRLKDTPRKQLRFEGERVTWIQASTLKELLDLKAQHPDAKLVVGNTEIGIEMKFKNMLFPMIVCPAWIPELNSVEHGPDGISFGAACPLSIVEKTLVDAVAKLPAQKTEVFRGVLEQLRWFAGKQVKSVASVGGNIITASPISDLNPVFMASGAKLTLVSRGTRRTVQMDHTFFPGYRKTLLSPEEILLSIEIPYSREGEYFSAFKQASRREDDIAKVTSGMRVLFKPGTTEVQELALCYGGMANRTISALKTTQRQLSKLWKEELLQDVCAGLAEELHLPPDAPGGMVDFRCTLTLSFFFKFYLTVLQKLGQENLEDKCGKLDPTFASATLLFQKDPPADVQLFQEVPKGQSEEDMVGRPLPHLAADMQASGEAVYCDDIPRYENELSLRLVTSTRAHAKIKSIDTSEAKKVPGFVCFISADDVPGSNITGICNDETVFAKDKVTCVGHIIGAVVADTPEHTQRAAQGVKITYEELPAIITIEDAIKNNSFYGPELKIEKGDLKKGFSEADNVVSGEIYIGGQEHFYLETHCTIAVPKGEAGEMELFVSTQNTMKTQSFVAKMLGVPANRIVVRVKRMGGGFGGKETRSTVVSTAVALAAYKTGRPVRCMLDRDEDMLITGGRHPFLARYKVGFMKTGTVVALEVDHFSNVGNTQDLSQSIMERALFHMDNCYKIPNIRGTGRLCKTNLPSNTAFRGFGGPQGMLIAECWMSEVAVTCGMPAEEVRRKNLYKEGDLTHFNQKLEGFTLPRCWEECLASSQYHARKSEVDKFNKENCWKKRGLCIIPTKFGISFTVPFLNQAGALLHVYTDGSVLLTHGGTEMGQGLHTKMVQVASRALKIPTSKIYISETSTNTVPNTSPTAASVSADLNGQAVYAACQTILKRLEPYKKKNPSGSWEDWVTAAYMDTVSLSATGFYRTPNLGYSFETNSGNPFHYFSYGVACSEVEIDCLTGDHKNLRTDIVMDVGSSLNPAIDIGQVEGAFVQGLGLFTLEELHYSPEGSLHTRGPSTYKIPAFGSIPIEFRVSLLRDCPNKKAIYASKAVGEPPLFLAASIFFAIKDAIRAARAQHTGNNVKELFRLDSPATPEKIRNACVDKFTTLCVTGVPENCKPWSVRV

Compound `O=C(Nc1cccc(-c2cn[nH]n2)c1)c1c(O)[nH]c(=O)[nH]c1=O` [Formula (Ia), N-(3-(1H-1,2,3-triazol-5-yl)phenyl)-6-hydroxy-2,4-dioxo-1,2,3,4-tetrahydropyrimidine-5-carboxamide] registered an IC50 of 6.5 µM.

On to `O=C(Nc1ccc(-c2nn[nH]c2-c2ccccc2)cc1)c1c(O)[nH]c(=O)[nH]c1=O` [Formula (Ic), 6-hydroxy-2,4-dioxo-N-(4-(4-phenyl-1H-1,2,3-triazol-5-yl)phenyl)-1,2,3,4-tetrahydropyrimidine-5-carboxamide], for which 12.2 µM corresponded to half-maximal inhibition (IC50).

Compound `O=C(Nc1ccc(-c2nc(C(F)(F)F)n[nH]2)cc1)c1c(O)[nH]c(=O)[nH]c1=O` [Formula (Ie), 6-hydroxy-2,4-dioxo-N-(4-(3-(trifluoromethyl)-1H-1,2,4-triazol-5-yl)phenyl)-1,2,3,4-tetrahydropyrimidine-5-carboxamide] showed an IC50 of 14.5 µM.

With `O=C(Nc1ccc(-c2cn[nH]c2)cc1)c1c(O)[nH]c(=O)[nH]c1=O` [Formula (If), N-(4-(1H-pyrazol-4-yl)phenyl)-6-hydroxy-2,4-dioxo-1,2,3,4-tetrahydropyrimidine-5-carboxamide], the IC50 is 70.1 µM.

As for `O=C(Nc1ccc(-c2c[nH]nn2)c(C(F)(F)F)c1)c1c(O)[nH]c(=O)[nH]c1=O` [Formula (Ig), N-(4-(1H-1,2,3-triazol-5-yl)-3-(trifluoromethyl)phenyl)-6-hydroxy-2,4-dioxo-1,2,3,4-tetrahydropyrimidine-5-carboxamide], the “Xanthine oxidase inhibition compared with allopurinol” value is on record as “comparable to allopurinol” and the IC50 worked out at 2.2 µM.

In the case of `O=C(Nc1ccc(-c2c[nH]nn2)cc1C(F)(F)F)c1c(O)[nH]c(=O)[nH]c1=O` [Formula (Ih), N-(4-(1H-1,2,3-triazol-5-yl)-2-(trifluoromethyl)phenyl)-6-hydroxy-2,4-dioxo-1,2,3,4-tetrahydropyrimidine-5-carboxamide], the “Xanthine oxidase inhibition compared with allopurinol” value was “more potent inhibitors of xanthine oxidase than allopurinol; also recorded: comparable to allopurinol” and it took 1.2 µM to reach half-maximal inhibition (IC50).

Regarding `O=C(Nc1ccc(-c2cc(O)n[nH]2)cc1)c1c(O)[nH]c(=O)[nH]c1=O` [Formula (Ii), 6-hydroxy-N-(4-(3-hydroxy-1H-pyrazol-5-yl)phenyl)-2,4-dioxo-1,2,3,4-tetrahydropyrimidine-5-carboxamide], the “Xanthine oxidase inhibition compared with allopurinol” value is given as “more potent inhibitors of xanthine oxidase than allopurinol” and the IC50 came out at 1.3 µM.

`O=C(Nc1ccc(-c2cn[nH]c2C(F)(F)F)cc1)c1c(O)[nH]c(=O)[nH]c1=O` [Formula (Ij), 6-hydroxy-2,4-dioxo-N-(4-(5-(trifluoromethyl)-1H-pyrazol-4-yl)phenyl)-1,2,3,4-tetrahydropyrimidine-5-carboxamide] returned an IC50 of 16.3 µM.

Compound `O=C(Nc1ccc(-n2cc(C(F)(F)F)cn2)cc1)c1c(O)[nH]c(=O)[nH]c1=O` [Formula (Ik), 6-hydroxy-2,4-dioxo-N-(4-(4-(trifluoromethyl)-1H-pyrazol-1-yl)phenyl)-1,2,3,4-tetrahydropyrimidine-5-carboxamide] gave a 50% inhibitory concentration (IC50) of 68 µM.

In turn, `O=C(Nc1ccc(-c2cc(C(F)(F)F)n[nH]2)cc1)c1c(O)[nH]c(=O)[nH]c1=O` [Formula (Il), 6-hydroxy-2,4-dioxo-N-(4-(3-(trifluoromethyl)-1H-pyrazol-5-yl)phenyl)-1,2,3,4-tetrahydropyrimidine-5-carboxamide] returned an IC50 of 67.9 µM.

Regarding `O=C(Nc1ccc(-c2[nH]ncc2C(F)(F)F)cc1)c1c(O)[nH]c(=O)[nH]c1=O` [Formula (Im), 6-hydroxy-2,4-dioxo-N-(4-(4-(trifluoromethyl)-1H-pyrazol-5-yl)phenyl)-1,2,3,4-tetrahydropyrimidine-5-carboxamide], the IC50 worked out at 25.2 µM.
